How the values were obtained:
[1] = target: geranylgeranyltransferase I (GGTase I) (Homo sapiens, UniProt P53609); details: cited from earlier work
JNK = experiment: Immunoblot for phosphorylated and total JNK; format: cell-based, human; details: 10 μM Y-27632 for 30 min prior to cell lysis
Description: MAPK Profiling. siRNA transfected cells were lysed in RIPA buffer (50 mM Tris pH 7.4, 150 mM NaCl, 1% NP-40) supplemented with protease and phosphatase inhibitors. Lysates were then analyzed by western blotting. Antibodies to phospho-JNK and total JNK were from Santa Cruz Biotechnology. Antibodies to phospho-ERK, phospho-p38, phospho-MKK4, phospho-MKK7, total ERK, total p38, total MKK4, and total MKK7 were from Cell Signaling Technology. The effect of ROCK inhibitor on JNK was tested by treating cells with 10 μM Y-27632 for 30 min prior to cell lysis. The effect of simvastatin on JNK was determined by treating cells with 10 μM simvastatin for 24 h prior to cell lysis.

CCM2-depleted HMVECs [2] = experiment: Phalloidin staining for actin stress fibers; format: cell-based, human
Description: Immunofluorescent Cell Staining. Glass chamber slides were coated with human fibronectin (Biomedical Technologies, Inc.), and transfected cells were seeded at 50,000 cells per well. For the RhoA and ROCK experiment, cells were treated four days after seeding with 40 μg/mL of cell-permeable C3 transferase (Cytoskeleton, Inc.) or 20 μM Y-27632 for 4 hours. For the simvastatin experiment, cells were treated three days after seeding with 40 μM simvastatin (Calbiochem) or equivalent amounts of ethanol in growth media for 24 hours. Cells were fixed in 4% formaldehyde and incubated with an antibody against β-catenin (BD Biosciences). Fluorescent secondary antibody (Molecular Probes) was used to visualize β-catenin staining Actin cytoskeleton was visualized using fluorescently-conjugated phalloidin (Molecular Probes). Images were obtained with an Olympus FV300 confocal microscope.

mice = details: mouse, in vivo
CCM2-depleted HMVECs [3] = experiment: Transendothelial electrical resistance (barrier function); format: cell-based, human; details: C3 transferase 1 μg ml^−1
Description: Transendothelial Resistance. An electrode culture array (Applied Biophysics) was coated with human fibronectin and transfected cells were seeded at 50,000 cells per well. Three days after seeding, cells were serum-starved in endothelial basal medium-2 with 0.2% BSA overnight. Transendothelial resistance was measured with an electric cell-substrate impedance sensing system (Applied Biophysics). Cell-permeable C3 transferase (1 μg ml^−1) was added to inhibit RHOA. For basal resistance, 40 wells each were measured for Rho inhibition experiments, six control wells each and ten C3 transferase wells each were measured.

For CC(C)C[C@H](NC(=O)c1ccc(NCc2c[nH]cn2)cc1-c1cccc2ccccc12)C(=O)O.O=C(O)C(F)(F)F [GGTI-2133, N-[[4-(Imidazol-4-yl)methylamino]-2-(1-naphthyl)benzoyl]leucine trifluoroacetate salt], the “selectivity for GGTase I over farnesyltransferase” value [1] is given as 140 fold.
For C[C@@H](N)[C@H]1CC[C@H](C(=O)Nc2ccncc2)CC1 [Y-27632, (R)-(+)-trans-N-(4-Pyridyl)-4-(1-aminoethyl)-cyclohexanecarboxamide], the “activation (phosphorylation) of JNK” value (JNK) was “decreased the activation of JNK”, the “actin stress fiber response” value (CCM2-depleted HMVECs [2]; 20 μM Y-27632, 4 hours) was “blocked the stress fiber response” and the tolerability in mice (mice) was “do not tolerate”.
For C3 transferase, the “actin stress fiber response” value (CCM2-depleted HMVECs [2]; 40 μg/mL cell-permeable C3 transferase, 4 hours) was “blocked the stress fiber response” and the “barrier function (transendothelial resistance)” value (CCM2-depleted HMVECs [3]) was “significantly rescue barrier function”.
